Measurements published in ChEMBL document CHEMBL4622926, “Fibroblast growth factor receptor modulators employing diamines with reduced phospholipidosis-inducing potential” (Bioorg Med Chem, 2020).

What was measured:
Rattus norvegicus [1] = organism: Rattus norvegicus; test: Modulation of FGFR in Wistar rat cerebrocortical/hippocampal neuronal cells assessed as protection against glutamate-induced neuronal cell death by measuring cell survival at 10 uM pretreated for 24 hrs followed by glutamate-stimulation by CCK8 assay relative to SUN13837
CYP3A4 = CYP3A4 (Homo sapiens, UniProt P08684); test: (§1) Mechanism based inactivation of CYP3A4 in human liver microsome assessed as remaining activity at 100 uM preincubated for 30 mins followed testosterone addition and measured after 10 mins by LC-MS/MS analysis relative to control; assay type: ADME, microsomes; details: human liver microsomes, probe testosterone, read-out: Activity
[2] = Partition coefficient, logP of compound by RP-HPLC analysis; assay type: physicochemical; details: octanol/water
Cytochrome P450 3A4 = Cytochrome P450 3A4 (Homo sapiens, UniProt P08684); test: as §1; assay type: ADME, microsomes; details: microsomes, 10 min, 100 µM
[3] = Volume of distribution in Crl:CD(SD) rat at 1 mg/kg, iv by LC-MS/MS analysis; assay type: ADME, organism-based; details: in vivo
[4] = Elimination half life in Crl:CD(SD) rat at 1 mg/kg, iv by LC-MS/MS analysis; assay type: ADME, organism-based; details: in vivo, read-out: beta t1/2 (converted)
[5] = AUC in Crl:CD(SD) rat at 5 mg/kg, po by LC-MS/MS analysis; assay type: ADME, organism-based; details: in vivo
[6] = Oral bioavailability in Crl:CD(SD) rat at 5 mg/kg by LC-MS/MS analysis; assay type: ADME, organism-based; details: in vivo
[7] = Clearance in Crl:CD(SD) rat at 1 mg/kg, iv by LC-MS/MS analysis; assay type: ADME, organism-based; details: in vivo
[8] = Ratio of drug level in Crl:CD(SD) rat brain to plasma at 1 mg/kg, iv measured after 1 hr by LC-MS/MS analysis; assay type: ADME, organism-based
Rattus norvegicus [9] = test: Neuroprotective activity against microsphere induced Crl:CD(SD) rat cerebral embolism model assessed as recovery of motor coordination by measuring latency time at 1 mg/kg, po administered daily for 10 days starting from day 1 post microsphere injection and measured at 2 weeks after microsphere injection by rotarod test (reference value: 189.1 secs); assay type: functional
[10] = Drug metabolism in human liver microsomes assessed as carboxylesterase-mediated hydrolytic rate for diamine compound formation at 100 uM incubated for 60 mins in absence of NADPH measured per mg protein by LC-MS/MS analysis; assay type: ADME; details: 1 h
[11] = AUC in Crl:CD(SD) rat at 10 mg/kg, po by LC-MS/MS analysis; assay type: ADME, organism-based; details: in vivo
[12] = Oral bioavailability in Crl:CD(SD) rat at 10 mg/kg by LC-MS/MS analysis; assay type: ADME, organism-based; details: in vivo

Chain of CYP3A4 (P08684 whole entry): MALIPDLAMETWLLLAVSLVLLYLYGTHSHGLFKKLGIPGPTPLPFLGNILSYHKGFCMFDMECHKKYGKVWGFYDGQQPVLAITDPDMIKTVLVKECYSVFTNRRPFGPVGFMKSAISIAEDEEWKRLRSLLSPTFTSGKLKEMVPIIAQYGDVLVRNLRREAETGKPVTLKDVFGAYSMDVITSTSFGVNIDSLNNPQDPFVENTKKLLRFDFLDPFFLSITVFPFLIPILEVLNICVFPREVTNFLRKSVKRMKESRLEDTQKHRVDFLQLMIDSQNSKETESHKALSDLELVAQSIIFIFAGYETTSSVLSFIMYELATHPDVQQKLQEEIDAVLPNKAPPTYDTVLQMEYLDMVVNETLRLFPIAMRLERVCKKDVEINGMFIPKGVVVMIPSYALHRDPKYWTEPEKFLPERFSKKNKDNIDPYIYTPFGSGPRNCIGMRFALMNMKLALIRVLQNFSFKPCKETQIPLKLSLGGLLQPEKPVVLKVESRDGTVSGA
Chain of Cytochrome P450 3A4 (P08684 whole entry): as above

Structure (SMILES) | Activity (Rattus norvegicus [1]) [%] | activity at 10 min, 100 µM (CYP3A4) [%] | logP ([2]; read-out: logP) | further results
Cc1nc(OCC(=O)N(C)[C@H]2CN(Cc3ccccc3)C[C@@H]2O)nc(C)c1N (relative stereo) | 93 | 55 | 2.4 | –
Cc1nc(OCC(=O)N(C)C2CCN(CC(C)(C)O)CC2)nc(C)c1N | 74 | 97 | 0.7 | –
Cc1nc(OCC(=O)N(C)C2CCN(Cc3ccccc3)C2)nc(C)c1N (centres undefined) | 77 | 55 | 2.6 | –
Cc1nc(OCC(=O)N(C)C2CN(Cc3ccccc3)CC2F)nc(C)c1N (centres undefined) | – | – | 3.7 | Activity (Cytochrome P450 3A4): 16%
Cc1nc(OCC(=O)N(C)C2CCN(C3(C)COC3)CC2)nc(C)c1N | 59 | 97 | 1.2 | –
Cc1nc(OCC(=O)N(C)C2CCN(Cc3ncccn3)CC2)nc(C)c1N | 96 | 99 | 1 | –
C[C@@H]1C[C@H]2[C@@H]3CCC4=CC(=O)C=C[C@]4(C)[C@@]3(F)[C@@H](O)C[C@]2(C)[C@@]1(O)C(=O)CO [DEXAMETHASONE] | – | – | 2.82 | –
Cc1nc(OCC(=O)N(C)C2CCN(CC(F)(F)F)CC2)nc(C)c1N | 103 | 75 | 2.6 | –
CN(C(=O)COc1ccc(Cl)nn1)C1CCN(CC(F)(F)F)CC1 | 74 | 100 | 4 | –
Cc1nc(OCC(=O)N(C)C2CCN(C3COC3)CC2)nc(C)c1N | 78 | 95 | 1.1 | –
CN(C(=O)COc1ccc(Cl)nn1)C1CCN(Cc2ncccc2F)CC1 | 44 | 100 | 2.6 | –
Cc1nc(OCC(=O)N2CC[C@@H]3[C@H]2CN3Cc2ccccc2)nc(C)c1N | 87 | 40 | 2.8 | –
Cc1nc(OCC(=O)N(C)C2CCN(CC3CC3(F)F)CC2)nc(C)c1N.Cl (racemic) | 189 | 86 | 2.2 | Vd [3]: 3.2 L/kg; half-life [4]: 2.7 h; AUC [5]: 1100 ng·h/mL; bioavailability [6]: 52%; clearance [7]: 38.3 mL/min/kg; Kp at 1 h [8]: 0.12
Cc1nc(OCC(=O)N(C)C2CN(Cc3ccccc3)CC2F)nc(C)c1N.Cl (centres undefined) | – | – | – | Activity (Cytochrome P450 3A4): 96%; logP [2]: 4.8
CC(C)Cc1ccc(C(C)C(=O)O)cc1 (centres undefined) [IBUPROFEN] | – | – | 2.97 | –
CN(C(=O)COc1ccc(Cl)nn1)C1CCN(CC2CC2(F)F)CC1 (centres undefined) | 105 | 99 | 3.1 | Vd [3]: 4.2 L/kg; half-life [4]: 1.7 h; AUC [5]: 1590 ng·h/mL; Time (Rattus norvegicus [9]): 315.5 s; bioavailability [6]: 73%; clearance [7]: 38.3 mL/min/kg; Drug metabolism [10]: 0 pmol/min; Kp at 1 h [8]: 0.92
Cc1nc(OCC(=O)N(C)C2CCN(Cc3ncccc3F)CC2)nc(C)c1N | 119 | 62 | 1.7 | –
Cc1nc(OCC(=O)N(C)C2CCN(Cc3ccccc3)CC2)nc(C)c1N | – | 60 | – | AUC [11]: 3700 ng·h/mL; Vd [3]: 2.3 L/kg; half-life [4]: 1.4 h; bioavailability [12]: 70%; Time (Rattus norvegicus [9]): 307 s; clearance [7]: 41.7 mL/min/kg; Drug metabolism [10]: 7.2 pmol/min; Kp at 1 h [8]: 0.15
Cc1nc(OCC(=O)N(C)C2CN(Cc3ccccc3)C2)nc(C)c1N | 127 | 58 | 2.1 | –
Cc1nc(OCC(=O)N(C)C2CCN(CC(F)F)CC2)nc(C)c1N | 76 | 98 | 2 | –
